# According to US9765039B2, “Biaryl derivatives as bromodomain inhibitors” (Zenith Epigenetics Ltd., priority 2012, dated 2017):
# Experiments:
# hMCP-1 mRNA = experiment: Inhibition of hMCP-1 mRNA transcription in human peripheral blood mononuclear cells; format: cell-based; parameters: key: Active: Compounds with an IC50 value less than 30 μM were deemed to be active.; Not Active: Compounds with an IC50 value less than 30 μM were deemed to be active; conditions: 3 h
# Experimental: In this example, hMCP-1 mRNA in human peripheral blood mononuclear cells was quantitated to measure the transcriptional inhibition of hMCP-1 when treated with a compound of the present disclosure.
# Human Peripheral Blood Mononuclear Cells were plated (1.0×10^5 cells per well) in a 96-well plate in 45 μL RPMI-1640 containing 10% FBS and penicillin/streptomycin. The cells were treated with the test compound (45 μL at 2× concentration), and then the cells were incubated at 37° C. for 3 h before the cells were harvested. At time of harvest, cells were transferred to V-bottom plates and centrifuged at 800 rpm for 5 minutes. Spent media was removed and cell lysis solution (70 μL) was added the cells in each well and incubated for 5-10 min at room temperature, to allow for complete cell lysis and detachment. mRNA was then prepared using the “mRNA Catcher PLUS plate” (Invitrogen), according to the protocol supplied. After the last wash, as much wash buffer as possible was aspirated without allowing the wells to dry. […]
# The eluted mRNA isolated was then used in a one-step quantitative real-time PCR reaction, using components of the Ultra Sense Kit together with Applied Biosystems primer-probe mixes. Real-time PCR data was analyzed, normalizing the Ct values for hMCP-1 to an internal control, prior to determining the fold induction of each unknown sample, relative to the control.
# hApoA-1 mRNA = experiment: Up-regulation of hApoA-1 mRNA transcription in Huh7 cells; format: cell-based, human; parameters: key: Active: Compounds with an EC170 value less than 30 μM are deemed to be active.; Not Active: Compounds with an EC170 value less than 30 μM are deemed to be active; conditions: 48 hrs treatment, ApoA-I mRNA
# In short: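 Huh7 cells plated 24 h before compound, then treated 48 h; mRNA isolated from lysates and ApoA-I quantified by one-step real-time PCR. Fold induction derived from Ct values relative to the matching DMSO control; EC170 reported as activity measure.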
# arthritic rats = experiment: In vivo efficacy in rat collagen induced arthritis; parameters: species or system female Lewis strain of rats; conditions: collagen Day 1 and 7, dosed Day 11 to Day 17
# Experimental: Rat collagen-induced arthritis is an experimental model of polyarthritis that has been widely used for preclinical testing of numerous anti-arthritic agents. Following administration of collagen, this model establishes a measurable polyarticular inflammation, marked cartilage destruction in association with pannus formation and mild to moderate bone resorption and periosteal bone proliferation. In this model, collagen was administered to female Lewis strain of rats on Day 1 and 7 of study and dosed with compounds from Day 11 to Day 17. Compounds were evaluated to assess the potential to inhibit the inflammation (including paw swelling), cartilage destruction and bone resorption in arthritic rats, using a model in which the treatment is administered after the disease has been established.
smiles,measurement,setting,value
"COc1cc(OC)c2c(=O)[nH]c(-c3ccc(OCCNC(C)C)c(-c4ccc([S+](C)[O-])cc4)n3)nc2c1 (stereo not shown) [Example 41, 2-(5-(2-(Isopropylamino)ethoxy)-6-(4-(methylsulfinyl)phenyl)pyridin-2-yl)-5,7-dimethoxyquinazolin-4(3H)-one]",MCP-1 Activity (IC50 < 30 μM),hMCP-1 mRNA,Active
same,ApoA-1 Activity (EC170 < 30 μM),hApoA-1 mRNA,Active
same,In vivo Activity,arthritic rats,Active
same,melting point,,93 to 95 °C
